The source of these data is patent US9550763B2, “Heterocyclic ring and carbocyclic derivative” (Shionogi & Co., Ltd., priority 2012, dated 2017).

By IC50 is commonly meant the concentration that gives 50% inhibition. A low value points to greater potency.

Molecules are shown by their SMILES.

Chain of human P2X3 receptor (P56373 whole entry): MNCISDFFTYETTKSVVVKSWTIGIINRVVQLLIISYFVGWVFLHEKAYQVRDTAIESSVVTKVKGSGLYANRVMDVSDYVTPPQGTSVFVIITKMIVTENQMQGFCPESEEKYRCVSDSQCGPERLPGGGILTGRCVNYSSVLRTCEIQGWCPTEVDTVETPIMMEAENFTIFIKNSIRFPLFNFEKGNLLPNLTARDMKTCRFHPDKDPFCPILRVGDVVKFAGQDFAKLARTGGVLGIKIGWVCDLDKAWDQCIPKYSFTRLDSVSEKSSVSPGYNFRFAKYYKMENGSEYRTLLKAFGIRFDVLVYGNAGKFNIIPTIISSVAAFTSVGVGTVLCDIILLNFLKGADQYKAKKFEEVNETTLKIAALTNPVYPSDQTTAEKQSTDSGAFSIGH

The target of this assay is human P2X3 receptor (Homo sapiens (Human), UniProt P56373). In words: Evaluation of human P2X3 receptor inhibitory activity (Test Example 1-1, FDSS 3000, 96-well, 50 nM ATP). It counts as cell-based. The conditions noted are these: human P2X3 receptor in C6BU-1 cells; Test Example 1-1 (compounds I-001 to I-300). Summed up:
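C6BU-1 cells stably expressing human P2X3, loaded with 4 μM Fluo-3-AM (pH 7.5), preincubated 5 min with compound before 50 nM ATP challenge; fluorescence followed 4 min on FDSS 3000. IC50 derived from peak/baseline fluorescence ratio, no-compound as 0% and buffer-instead-of-ATP as 100% inhibition.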
Take `COC(=O)[C@@H](C)Cn1c(=O)cc(Nc2ccc(Oc3ccccc3)cc2)n(Cc2ccc(Cl)cc2)c1=O` [Compound I-113]: the half-maximal inhibitory concentration (IC50) was 187 nM.
In the case of `Cc1ccc(Oc2ccc(Nc3nc(=O)c(C(=O)NCC(=O)N(C)C)cn3Cc3ccc(Cl)cc3)cc2)nn1` [Compound I-298], the IC50 is 23 nM.
Regarding `CCC(=O)Nc1c[nH]/c(=N\c2ccc(Oc3ccnc(C(=O)O)c3)cc2)n(Cc2ccc(Cl)cn2)c1=O` [Compound I-289], the IC50 worked out at 24 nM.
In turn, `N#Cc1cccc(Oc2ccc(Nc3cc(=O)[nH]c(=O)n3Cc3ccc(Cl)cc3)cc2)n1` [Compound I-064] showed a concentration for half-maximal inhibition (IC50) of 36 nM.
The figure for `CCC(=O)Nc1c[nH]/c(=N\c2ccc(Oc3cnc(C(=O)O)cn3)cc2)n(Cc2ccc(Cl)cc2)c1=O` [Compound I-094] is 10 nM; for `O=C(NCCO)c1c[nH]/c(=N\c2ccc(Oc3ccon3)cc2)n(Cc2ccc(Cl)cc2)c1=O` [Compound I-101] it is 71 nM; for `Cc1ccc(Cn2cc(C(=O)NC3CCOCC3)c(=O)nc2Nc2ccc(Oc3cccc(F)n3)cc2)cc1` [Compound I-282] it is 6 nM.
The figure for `O=c1c(-c2ccc(O)nc2)c[nH]/c(=N\c2ccc(Oc3ccon3)cc2)n1Cc1ccc(Cl)cc1` [Compound I-205] is 153 nM; for `CCn1c(=O)cc(Nc2cnc(Oc3cccc(C(=O)O)c3)cn2)n(Cc2ccc(Cl)cc2)c1=O` [Compound I-083] it is 168 nM; for `O=C(O)c1cccc(Oc2ccc(Nc3cc(=O)[nH]c(=O)n3Cc3ccc(Cl)cc3)cc2)n1` [Compound I-067] it is 34 nM.
Regarding `COC(=O)[C@@H](C)Cn1c(=O)cc(Nc2ccc(Oc3ncccc3F)cc2)n(Cc2ccc(Cl)cc2)c1=O` [Compound I-115], the IC50 was 9 nM.
The figure for `CCn1c(=O)cc(Nc2ccc(Oc3cccc(C(=O)O)c3)c(C)n2)n(Cc2ccc(Cl)cc2)c1=O` [Compound I-258] is 27 nM; for `C[C@@H](Cn1c(=O)cc(Nc2ccc(Oc3cccc(C(N)=O)n3)c(F)c2)n(Cc2ccc(Cl)cc2)c1=O)C(=O)O` [Compound I-126] it is 3 nM; for `CC(=O)Nc1cnc(Nc2ccc(Oc3ccon3)cc2)n(Cc2ccc(Cl)cc2)c1=O` [Compound I-065] it is 99 nM.
In the case of `CCc1oc2ccc(/N=c3\[nH]cc(CN4CCOCC4)c(=O)n3Cc3ccc(Cl)cc3)cc2c1C` [Compound I-057] it was 269 nM.
In the case of `O=C(NC1CCOCC1)c1cn(Cc2ccc(Cl)cc2)c(Nc2ccc(Oc3ccon3)cc2)nc1=O` [Compound I-175] it was 37 nM; in that of `CCc1oc2ccc(/N=c3\[nH]cc(C(C)=O)c(=O)n3Cc3ccc(Cl)cc3)cc2c1C` [Compound I-073], 140 nM; in that of `N#Cc1c[nH]/c(=N\c2ccc(Oc3ccc(F)cn3)cc2)n(Cc2ccc(Cl)cc2)c1=O` [Compound I-261], 498 nM.
The compound `O=C(NC1CCOCC1)c1cn(Cc2ccc(Cl)cc2)c(Nc2ccc(Oc3ncccc3F)cc2)nc1=O` [Compound I-155] yielded a half-maximal inhibitory concentration (IC50) of 17 nM.
In the case of `CCC(=O)Nc1c[nH]/c(=N\c2ccc(Oc3ccnc(C(=O)O)c3)cc2)n(Cc2ccc(Cl)cc2)c1=O` [Compound I-105], the concentration for half-maximal inhibition (IC50) stood at 5 nM.
Consider `CCC(=O)Nc1c[nH]/c(=N\c2ccc(Oc3ccnc(C(N)=O)c3)cc2)n(Cc2ccc(Cl)cn2)c1=O` [Compound I-277], for which the IC50 was 172 nM.
In the case of `NC(=O)c1cccc(Oc2ccc(Nc3cc(=O)[nH]c(=O)n3Cc3ccc(Cl)cc3)cc2)n1` [Compound I-066] it was 81 nM.
For the compound `O=C(Nc1c[nH]/c(=N\c2ccc(Oc3ccon3)cc2)n(Cc2ccc(Cl)cc2)c1=O)C1CNC1` [Compound I-181], the half-inhibitory concentration (IC50) amounted to 131 nM.
The compound `CCc1c[nH]/c(=N\c2ccc(Oc3cccc(C(=O)O)n3)cc2)n(Cc2ccc(Cl)cc2)c1=O` [Compound I-144] had a concentration for half-maximal inhibition (IC50) of 35 nM.
Take `CCc1oc2ccc(Nc3ncc(NC(=O)C4CCOCC4)c(=O)n3Cc3ccc(Cl)c(Cl)c3)cc2c1C` [Compound I-079]: the 50% inhibitory concentration (IC50) was 58 nM.
